Experimental data from ChEMBL document CHEMBL1255249, “Urine bactericidal activity against Escherichia coli isolates exhibiting different resistance phenotypes/genotypes in an in vitro pharmacodynamic model simulating urine concentrations obtained after oral administration of a 400-milligram single dose of cefditoren-pivoxil” (Antimicrob Agents Chemother, 2008).
Converted amounts (≈) assume the structure as drawn. Each block holds one molecule with its values, some of them ahead of it. The source made the active and inactive calls. The rule behind the calls is not given here.

What was measured:
Escherichia coli [1] = assay: Antimicrobial activity against Escherichia coli S4 expressing inhibitor-resistant TEM-34; type: functional
Escherichia coli [2] = assay: Antimicrobial activity against Escherichia coli S1 expressing penicillinase TEM-1; type: functional
Escherichia coli [3] = assay: Antimicrobial activity against Escherichia coli S3 overexpressing penicillinase TEM-1; type: functional
Escherichia coli [4] = assay: Antimicrobial activity against Escherichia coli S2 expressing penicillinase TEM-1; type: functional
Escherichia coli [5] = assay: Antimicrobial activity against Escherichia coli S7 expressing extended-spectrum beta-lactamase SHV-12 and penicillinase TEM-1; type: functional
Escherichia coli [6] = assay: Antimicrobial activity against Escherichia coli S6 expressing extended-spectrum beta-lactamase TEM-116 and SHV-12; type: functional
Escherichia coli [7] = assay: Antimicrobial activity against Escherichia coli S5 expressing extended-spectrum beta-lactamase TEM-116; type: functional
Escherichia coli [8] = assay: Antimicrobial activity against Escherichia coli S3 overexpressing penicillinase TEM-1 in presence of beta-lactamase inhibitor clavulanic acid; type: functional
Escherichia coli [9] = assay: Antimicrobial activity against Escherichia coli S1 expressing penicillinase TEM-1 in presence of beta-lactamase inhibitor clavulanic acid; type: functional
Escherichia coli [10] = assay: Antimicrobial activity against Escherichia coli S2 expressing penicillinase TEM-1 in presence of beta-lactamase inhibitor clavulanic acid; type: functional
Escherichia coli [11] = assay: Antimicrobial activity against Escherichia coli S7 expressing extended-spectrum beta-lactamase SHV-12 and penicillinase TEM-1 in presence of beta-lactamase inhibitor clavulanic acid; type: functional
Escherichia coli [12] = assay: Antimicrobial activity against Escherichia coli S4 expressing inhibitor-resistant TEM-34 in presence of beta-lactamase inhibitor clavulanic acid; type: functional
Escherichia coli [13] = assay: Antimicrobial activity against Escherichia coli S5 expressing extended-spectrum beta-lactamase TEM-116 in presence of beta-lactamase inhibitor clavulanic acid; type: functional
Escherichia coli [14] = assay: Antimicrobial activity against Escherichia coli S6 expressing extended-spectrum beta-lactamase TEM-116 and SHV-12 in presence of beta-lactamase inhibitor clavulanic acid; type: functional
Homo sapiens [15] = assay: Clearance in human at […], po after 5 hrs to 12 hrs; type: ADME, organism-based; design: route oral; settings: in vivo
Escherichia coli [16] = assay: Antimicrobial activity against Escherichia coli S2 expressing penicillinase TEM-1after 12 hrs; type: functional, organism-based
Escherichia coli [17] = assay: Antimicrobial activity against Escherichia coli S5 expressing extended-spectrum beta-lactamase TEM-116 after 12 hrs; type: functional, organism-based
Escherichia coli [18] = assay: Antimicrobial activity against Escherichia coli S2 expressing penicillinase TEM-1after 24 hrs; type: functional, organism-based
Escherichia coli [19] = assay: Antimicrobial activity against Escherichia coli; type: functional
Escherichia coli [20] = assay: Antimicrobial activity against Escherichia coli S7 expressing extended-spectrum beta-lactamase SHV-12 and penicillinase TEM-1 after 24 hrs; type: functional, organism-based
Escherichia coli [21] = assay: Antimicrobial activity against Escherichia coli S2 expressing penicillinase TEM-1 assessed as log reduction in bacterial count after 4 to 24 hrs in presence of calcium ions; type: functional
Escherichia coli [22] = assay: Antimicrobial activity against Escherichia coli S2 expressing penicillinase TEM-1 assessed as log reduction in bacterial count after 4 to 24 hrs in presence of magnesium ions; type: functional
Escherichia coli [23] = assay: Antimicrobial activity against Escherichia coli S4 expressing inhibitor-resistant TEM-34 after 8 hrs; type: functional, organism-based
Escherichia coli [24] = assay: Antimicrobial activity against Escherichia coli S5 expressing extended-spectrum beta-lactamase TEM-116 after 24 hrs; type: functional, organism-based
Escherichia coli [25] = assay: Antimicrobial activity against Escherichia coli S4 expressing inhibitor-resistant TEM-34 after 24 hrs; type: functional, organism-based
Escherichia coli [26] = assay: Antimicrobial activity against Escherichia coli S6 expressing extended-spectrum beta-lactamase TEM-116 and SHV-12 after 24 hrs; type: functional, organism-based
Escherichia coli [27] = assay: Antimicrobial activity against Escherichia coli S3 overexpressing penicillinase TEM-1 assessed as log reduction in bacterial count upto 8 hrs; type: functional
Escherichia coli [28] = assay: Antimicrobial activity against Escherichia coli S5 expressing extended-spectrum beta-lactamase TEM-116 assessed as log reduction in bacterial count from 3 to 24 hrs; type: functional
Escherichia coli [29] = assay: Antimicrobial activity against Escherichia coli S3 overexpressing penicillinase TEM-1 after 24 hrs; type: functional, organism-based
Escherichia coli [30] = assay: Antimicrobial activity against Escherichia coli S6 expressing extended-spectrum beta-lactamase TEM-116 and SHV-12 after 8 hrs; type: functional, organism-based
Escherichia coli [31] = assay: Antimicrobial activity against Escherichia coli S5 expressing extended-spectrum beta-lactamase TEM-116 assessed as log reduction in bacterial count upto 8 hrs; type: functional
Escherichia coli [32] = assay: Antimicrobial activity against Escherichia coli S1 expressing penicillinase TEM-1 assessed as log reduction in bacterial count after 4 to 24 hrs in presence of calcium ions; type: functional
Homo sapiens [33] = assay: Clearance in human at […], po after 3 hrs; type: ADME, organism-based; design: route oral; settings: in vivo
Escherichia coli [34] = assay: Antimicrobial activity against Escherichia coli S2 expressing penicillinase TEM-1 assessed as log reduction in bacterial count upto 8 hrs; type: functional
Escherichia coli [35] = assay: Antimicrobial activity against Escherichia coli S1 expressing penicillinase TEM-1 assessed as log reduction in bacterial count after 4 to 24 hrs in presence of magnesium ions; type: functional
Escherichia coli [36] = assay: Antimicrobial activity against Escherichia coli S7 expressing extended-spectrum beta-lactamase SHV-12 and penicillinase TEM-1 after 8 hrs; type: functional, organism-based
Escherichia coli [37] = assay: Antimicrobial activity against Escherichia coli S1 expressing penicillinase TEM-1 assessed as log reduction in bacterial count upto 8 hrs; type: functional
Escherichia coli [38] = assay: Antimicrobial activity against Escherichia coli S1 expressing penicillinase TEM-1 after 24 hrs; type: functional, organism-based
Escherichia coli [39] = assay: Antimicrobial activity against Escherichia coli S1 expressing penicillinase TEM-1 after 8 hrs; type: functional, organism-based
Escherichia coli [40] = assay: Antimicrobial activity against Escherichia coli S6 expressing extended-spectrum beta-lactamase TEM-116 and SHV-12 after 12 hrs; type: functional, organism-based
Escherichia coli [41] = assay: Antimicrobial activity against Escherichia coli S3 overexpressing penicillinase TEM-1 after 8 hrs; type: functional, organism-based
Escherichia coli [42] = assay: Antimicrobial activity against Escherichia coli S5 expressing extended-spectrum beta-lactamase TEM-116 after 8 hrs; type: functional, organism-based
Homo sapiens [43] = assay: Drug level in human urine at […], po after 8 to 12 hrs; type: ADME, organism-based; design: route oral; settings: in vivo
Escherichia coli [44] = assay: Antimicrobial activity against Escherichia coli S2 expressing penicillinase TEM-1 after 8 hrs; type: functional, organism-based
Escherichia coli [45] = assay: Antimicrobial activity against Escherichia coli S4 expressing inhibitor-resistant TEM-34 assessed as log reduction in bacterial count upto 8 hrs; type: functional
Escherichia coli [46] = assay: Antimicrobial activity against Escherichia coli S4 expressing inhibitor-resistant TEM-34 after 12 hrs; type: functional, organism-based
Escherichia coli [47] = assay: Antimicrobial activity against Escherichia coli S3 overexpressing penicillinase TEM-1after 12 hrs; type: functional, organism-based
Escherichia coli [48] = assay: Antimicrobial activity against Escherichia coli S6 expressing extended-spectrum beta-lactamase TEM-116 and SHV-12assessed as log reduction in bacterial count upto 8 hrs; type: functional
Escherichia coli [49] = assay: Antimicrobial activity against Escherichia coli S7 expressing extended-spectrum beta-lactamase SHV-12 and penicillinase TEM-1 after 12 hrs; type: functional, organism-based
Homo sapiens [50] = assay: Clearance in human at […], po after 3 hrs to 5 hrs; type: ADME, organism-based; design: route oral; settings: in vivo
Escherichia coli [51] = assay: Antimicrobial activity against Escherichia coli S1 expressing penicillinase TEM-1 after 12 hrs; type: functional, organism-based

SMILES: CO/N=C(\C(=O)N[C@@H]1C(=O)N2C(C(=O)O)=C(COC(N)=O)CS[C@H]12)c1ccco1 [CEFUROXIME]
MIC (Escherichia coli [1]): 4 µg/mL (≈ 9.43 µM)
MIC (Escherichia coli [2]): 4 µg/mL (≈ 9.43 µM)
MIC (Escherichia coli [3]): 8 µg/mL (≈ 18.9 µM)
MIC (Escherichia coli [4]): 4 µg/mL (≈ 9.43 µM)
MIC (Escherichia coli [5]): 32 µg/mL (≈ 75.4 µM)
MIC (Escherichia coli [6]): > 128 µg/mL
MIC (Escherichia coli [7]): 32 µg/mL (≈ 75.4 µM)

SMILES: CC1(C)S[C@@H]2[C@H](NC(=O)[C@H](N)c3ccc(O)cc3)C(=O)N2[C@H]1C(=O)O [AMOXICILLIN]
MIC (Escherichia coli [8]): 16 µg/mL
MIC (Escherichia coli [9]): 4 µg/mL
MIC (Escherichia coli [1]): 32 µg/mL (≈ 87.6 µM)
MIC (Escherichia coli [10]): 2 µg/mL
MIC (Escherichia coli [2]): 8 µg/mL (≈ 21.9 µM)
MIC (Escherichia coli [3]): 32 µg/mL (≈ 87.6 µM)
MIC (Escherichia coli [11]): 8 µg/mL
MIC (Escherichia coli [4]): 4 µg/mL (≈ 10.9 µM)
MIC (Escherichia coli [5]): 16 µg/mL (≈ 43.8 µM)
MIC (Escherichia coli [12]): 16 µg/mL
MIC (Escherichia coli [13]): 2 µg/mL
MIC (Escherichia coli [14]): 4 µg/mL
MIC (Escherichia coli [6]): 8 µg/mL (≈ 21.9 µM)
MIC (Escherichia coli [7]): 4 µg/mL (≈ 10.9 µM)

MIC (Escherichia coli [2]): 0.007 µg/mL (≈ 0.0211 µM)
MIC (Escherichia coli [4]): > 32 µg/mL
MIC (Escherichia coli [5]): > 32 µg/mL
SMILES: O=C(O)c1cn(C2CC2)c2cc(N3CCNCC3)c(F)cc2c1=O [CIPROFLOXACIN]

SMILES: CO/N=C(\C(=O)N[C@@H]1C(=O)N2C(C(=O)OCOC(=O)C(C)(C)C)=C(/C=C\c3scnc3C)CS[C@H]12)c1csc(N)n1 [CEFDITOREN PIVOXIL]
CL (Homo sapiens [15]): 3.04 mL/min
Activity (Escherichia coli [16]): Active
Activity (Escherichia coli [17]): inactive
MIC (Escherichia coli [1]): 2 µg/mL (≈ 3.22 µM)
Activity (Escherichia coli [18]): Active
MIC90 (Escherichia coli [19]): 0.5 µg/mL (≈ 0.805 µM)
Activity (Escherichia coli [20]): inactive
FC (Escherichia coli [21]): >4
FC (Escherichia coli [22]): >4
Activity (Escherichia coli [23]): Active
Activity (Escherichia coli [24]): inactive
Activity (Escherichia coli [25]): Active
Activity (Escherichia coli [26]): inactive
FC (Escherichia coli [27]): >=5
FC (Escherichia coli [28]): >=3
Activity (Escherichia coli [29]): Active
Activity (Escherichia coli [30]): inactive
FC (Escherichia coli [31]): >=7
FC (Escherichia coli [32]): >4
MIC (Escherichia coli [2]): 0.25 µg/mL (≈ 0.403 µM)
MIC (Escherichia coli [3]): 1 µg/mL (≈ 1.61 µM)
CL (Homo sapiens [33]): 0.86 mL/min
FC (Escherichia coli [34]): >=4
FC (Escherichia coli [35]): >4
Activity (Escherichia coli [36]): inactive
MIC (Escherichia coli [4]): 1 µg/mL (≈ 1.61 µM)
MIC (Escherichia coli [5]): 16 µg/mL (≈ 25.8 µM)
FC (Escherichia coli [37]): >=3
Activity (Escherichia coli [38]): Active
Activity (Escherichia coli [39]): Active
Activity (Escherichia coli [40]): inactive
Activity (Escherichia coli [41]): Active
Activity (Escherichia coli [42]): Active
Drug uptake (Homo sapiens [43]): 12.7 µg/mL
MIC (Escherichia coli [6]): 8 µg/mL (≈ 12.9 µM)
Activity (Escherichia coli [44]): Active
FC (Escherichia coli [45]): >=6
Activity (Escherichia coli [46]): Active
Activity (Escherichia coli [47]): Active
MIC (Escherichia coli [7]): 0.5 µg/mL (≈ 0.805 µM)
FC (Escherichia coli [48]): >=8
Activity (Escherichia coli [49]): inactive
CL (Homo sapiens [50]): 2.88 mL/min
Activity (Escherichia coli [51]): Active
